Active and inactive are the calls of the source.
Tests used:
[1] = target: T1, C-C chemokine receptor type 6 (Homo sapiens, UniProt P51684); assay: antagonism of CCR6 beta-arrestin recruitment – cell-based, luminescent beta-arrestin readout, dose response (AID 504728); assay type: functional
T1 sequence (P51684 whole entry): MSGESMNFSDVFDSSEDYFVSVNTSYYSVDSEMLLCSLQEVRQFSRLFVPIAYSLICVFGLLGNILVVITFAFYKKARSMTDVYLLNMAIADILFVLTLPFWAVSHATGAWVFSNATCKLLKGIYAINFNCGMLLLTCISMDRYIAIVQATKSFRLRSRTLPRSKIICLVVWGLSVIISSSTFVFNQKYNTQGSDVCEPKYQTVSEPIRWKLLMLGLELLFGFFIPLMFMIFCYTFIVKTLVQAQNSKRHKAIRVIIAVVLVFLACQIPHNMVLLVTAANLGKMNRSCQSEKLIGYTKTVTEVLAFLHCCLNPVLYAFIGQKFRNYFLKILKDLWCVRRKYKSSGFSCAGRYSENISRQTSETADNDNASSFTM

[2] = cAMP pathway inhibition in counterscreen cell line – TR-FRET cAMP detection, counter-screen for MC4R biased antagonist project, dose response (AID 602305); assay type: functional, cell-based;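 note: U2OS cells stimulated with forskolin near its EC80 as the cAMP inducer; potency is for inhibition of forskolin-stimulated cAMP signaling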
Beta-galactosidase = Beta-galactosidase (Escherichia coli, UniProt Q8VNN2); assay: detection-enzyme interference by beta-gal modulators – biochemical, E. coli enzyme, set 3, artefact control for CCR6 antagonist project, dose response (AID 504712); assay type: functional
Melanocortin receptor 4 = Melanocortin receptor 4 (Homo sapiens, UniProt P32245); assay: inhibitors of MC4R cAMP signaling – cell-based, TR-FRET, biased antagonists, dose response (AID 602298); assay type: functional;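 note: antagonist potency against agonist-stimulated cAMP production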
HEK293 = assay: EBV LMP1 TES2 canonical NF-kB signalling blockers – cell-based, HEK293, luciferase, cherry-pick, dose response (AID 588343); assay type: functional; details: Homo sapiens
[3] = target: T2, High affinity choline transporter 1 (Homo sapiens, UniProt Q9GZV3); assay: human choline transporter blockers, potency – cell-based, 10-point CRC, membrane potential dye, dose response (AID 588401); assay type: functional;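 note: membrane potential dye fluorescence of choline-evoked depolarization via CHT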
T2 sequence (Q9GZV3 whole entry): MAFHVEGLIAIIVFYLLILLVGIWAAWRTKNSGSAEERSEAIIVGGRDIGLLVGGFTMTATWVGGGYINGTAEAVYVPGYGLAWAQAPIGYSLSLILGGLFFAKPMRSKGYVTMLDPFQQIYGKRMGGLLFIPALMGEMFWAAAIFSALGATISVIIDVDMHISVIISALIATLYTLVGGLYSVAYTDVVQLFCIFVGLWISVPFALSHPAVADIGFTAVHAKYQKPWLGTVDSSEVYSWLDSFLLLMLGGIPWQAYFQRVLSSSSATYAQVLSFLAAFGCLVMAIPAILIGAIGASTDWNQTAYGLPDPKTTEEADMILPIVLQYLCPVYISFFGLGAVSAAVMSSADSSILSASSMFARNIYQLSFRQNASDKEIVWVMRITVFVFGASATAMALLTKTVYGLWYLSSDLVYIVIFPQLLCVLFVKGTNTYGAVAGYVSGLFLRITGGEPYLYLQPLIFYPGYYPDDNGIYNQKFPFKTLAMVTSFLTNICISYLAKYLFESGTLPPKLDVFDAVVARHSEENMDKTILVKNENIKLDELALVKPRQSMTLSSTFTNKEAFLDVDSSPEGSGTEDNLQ

[4] = A cytotoxicity screen of small molecule inhibitors of the PhoP region in Salmonella typhi identified in the primary screen. [Related pubchem assays: 1850, 1864, 1985 ]; assay type: functional
[5] = target: T2, High affinity choline transporter 1; assay: human choline transporter blockers, potency – cell-based, 5-point CRC, membrane potential dye, dose response (AID 504840); assay type: functional
[6] = target: Vascular endothelial growth factor receptor 1 (Homo sapiens, UniProt P17948); assay type: functional;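 note: measured within a kinome-wide profiling panel, FLT1 as the panel member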
[7] = target: Rho-associated protein kinase 1 (Homo sapiens, UniProt Q13464); assay type: functional;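 note: measured within a broad kinome-wide panel profiling many kinases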
[8] = target: Cyclin-dependent kinase 8 (Homo sapiens, UniProt P49336); assay: Navigating the Kinome. Panel member name: CDK8; assay type: functional
[9] = target: Dual specificity protein kinase CLK4 (Homo sapiens, UniProt Q9HAZ1); assay type: functional
[10] = target: Cyclin-dependent kinase 9 (Homo sapiens, UniProt P50750); assay type: functional;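 note: value from the CDK9 entry of a kinome-spanning kinase panel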
LIM domain kinase 1 = LIM domain kinase 1 (Homo sapiens, UniProt P53667); assay: Navigating the Kinome. Panel member name: LIMK1; assay type: functional
[11] = target: T3, DNA repair and recombination protein RAD54-like (Homo sapiens, UniProt Q92698); assay: RAD54 Holliday junction migration blockers – biochemical, fluorescence, cherry-picked samples, dose series, confirmation (AID 651657); assay type: functional
T3 sequence (Q92698 whole entry): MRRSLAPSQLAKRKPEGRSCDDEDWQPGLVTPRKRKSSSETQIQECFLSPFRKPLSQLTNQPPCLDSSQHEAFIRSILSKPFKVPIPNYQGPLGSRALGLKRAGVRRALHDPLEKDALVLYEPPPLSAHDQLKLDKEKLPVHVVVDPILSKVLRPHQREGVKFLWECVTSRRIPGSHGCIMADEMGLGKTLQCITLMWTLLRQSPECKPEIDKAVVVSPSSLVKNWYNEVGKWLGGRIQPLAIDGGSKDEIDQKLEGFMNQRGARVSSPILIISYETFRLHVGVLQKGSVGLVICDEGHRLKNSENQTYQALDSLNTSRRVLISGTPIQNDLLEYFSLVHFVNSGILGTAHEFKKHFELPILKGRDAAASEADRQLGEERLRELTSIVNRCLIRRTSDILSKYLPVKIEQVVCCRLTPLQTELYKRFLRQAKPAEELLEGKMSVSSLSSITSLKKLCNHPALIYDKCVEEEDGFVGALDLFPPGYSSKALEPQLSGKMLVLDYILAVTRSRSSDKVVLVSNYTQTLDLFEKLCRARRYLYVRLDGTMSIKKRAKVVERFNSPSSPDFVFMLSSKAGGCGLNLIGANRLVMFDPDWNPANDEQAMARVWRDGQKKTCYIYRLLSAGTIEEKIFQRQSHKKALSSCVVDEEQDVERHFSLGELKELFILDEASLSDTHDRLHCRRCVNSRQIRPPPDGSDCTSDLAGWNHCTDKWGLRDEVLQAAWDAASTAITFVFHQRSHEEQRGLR

Phospholipase A2 = Phospholipase A2 (Homo sapiens, UniProt P04054); assay type: functional;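 note: confirmatory dose-response counterscreen on phospholipase A2, testing hits that came from an ultra-high-throughput screen for ATG4B inhibitors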
Cysteine protease ATG4B = target: T4, Cysteine protease ATG4B (Homo sapiens, UniProt Q9Y4P1); assay type: functional;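 note: Fluorescence-based dose-response confirmation assay measuring inhibition of ATG4B activity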
T4 sequence (Q9Y4P1 whole entry): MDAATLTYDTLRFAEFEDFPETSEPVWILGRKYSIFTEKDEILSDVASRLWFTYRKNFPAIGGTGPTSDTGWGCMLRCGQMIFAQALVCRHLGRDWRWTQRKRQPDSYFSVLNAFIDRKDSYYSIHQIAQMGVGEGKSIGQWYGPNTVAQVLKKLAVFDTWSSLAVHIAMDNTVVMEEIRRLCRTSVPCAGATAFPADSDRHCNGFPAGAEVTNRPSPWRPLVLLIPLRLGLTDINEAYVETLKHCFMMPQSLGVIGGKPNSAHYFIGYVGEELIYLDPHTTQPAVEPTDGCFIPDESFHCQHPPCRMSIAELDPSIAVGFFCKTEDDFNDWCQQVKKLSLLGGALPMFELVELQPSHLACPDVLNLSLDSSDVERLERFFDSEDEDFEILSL

Genome polyprotein = Genome polyprotein (dengue virus type 2, UniProt P29990); assay: flavivirus cap methylation enzyme inhibition – biochemical, confirmation dose response, primary screen (AID 588689); assay type: functional
Hexokinase HKDC1 = target: T5, Hexokinase HKDC1 (Homo sapiens, UniProt Q2TB90); assay: inhibition of HKDC1 glucose phosphorylation – biochemical, W721R variant, dose response (AID 504729); assay type: functional
T5 sequence (Q2TB90 whole entry): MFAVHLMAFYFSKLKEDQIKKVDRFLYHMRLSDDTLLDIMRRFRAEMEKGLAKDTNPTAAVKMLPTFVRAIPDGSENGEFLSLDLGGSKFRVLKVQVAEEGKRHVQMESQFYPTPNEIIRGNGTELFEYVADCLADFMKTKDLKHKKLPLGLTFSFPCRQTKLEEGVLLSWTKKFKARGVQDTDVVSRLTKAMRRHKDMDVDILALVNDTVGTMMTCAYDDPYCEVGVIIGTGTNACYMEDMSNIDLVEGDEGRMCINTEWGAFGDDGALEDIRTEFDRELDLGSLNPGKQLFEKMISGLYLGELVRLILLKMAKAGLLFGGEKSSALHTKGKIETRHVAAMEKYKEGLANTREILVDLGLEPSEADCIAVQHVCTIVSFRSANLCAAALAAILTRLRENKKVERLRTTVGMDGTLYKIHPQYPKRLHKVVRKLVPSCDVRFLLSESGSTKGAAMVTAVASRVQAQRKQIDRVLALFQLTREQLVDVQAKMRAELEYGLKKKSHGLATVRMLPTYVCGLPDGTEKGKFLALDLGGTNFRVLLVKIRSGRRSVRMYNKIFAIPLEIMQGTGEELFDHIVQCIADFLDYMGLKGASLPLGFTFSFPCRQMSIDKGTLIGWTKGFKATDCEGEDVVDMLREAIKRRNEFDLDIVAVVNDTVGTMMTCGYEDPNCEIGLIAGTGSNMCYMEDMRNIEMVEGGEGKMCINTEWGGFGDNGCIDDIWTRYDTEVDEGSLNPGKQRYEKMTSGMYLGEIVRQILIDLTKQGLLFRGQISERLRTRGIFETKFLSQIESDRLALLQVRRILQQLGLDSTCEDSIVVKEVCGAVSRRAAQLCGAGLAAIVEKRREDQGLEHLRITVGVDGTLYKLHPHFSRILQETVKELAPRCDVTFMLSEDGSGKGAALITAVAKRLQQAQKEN

[12] = target: Ribosomal protein S6 kinase beta-1 (Homo sapiens, UniProt P23443); assay type: functional;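 note: measured as one member of a kinome-wide profiling panel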
[13] = target: Proto-oncogene tyrosine-protein kinase ROS (Homo sapiens, UniProt P08922); assay type: functional;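 note: ROS1 tested as one member of a kinome-wide kinase panel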
[14] = target: Ras and Rab interactor 1/Tyrosine-protein kinase ABL1 (Homo sapiens, UniProt P00519+Q13671); assay type: functional;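 note: biochemical TR-FRET dose-response test measuring inhibition of binding between Rin1 and Abl proteins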
[15] = target: T6, Ubiquitin-conjugating enzyme E2 N (Homo sapiens, UniProt P61088); assay type: functional;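 note: Dose-response confirmation in a TR-FRET assay detecting UBC13-driven polyubiquitin chain formation, inhibition measured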
T6 sequence (P61088 whole entry): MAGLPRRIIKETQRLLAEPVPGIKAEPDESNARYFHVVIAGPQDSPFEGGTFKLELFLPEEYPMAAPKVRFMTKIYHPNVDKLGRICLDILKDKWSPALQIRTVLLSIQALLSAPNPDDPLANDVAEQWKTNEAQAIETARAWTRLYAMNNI

Chain of Melanocortin receptor 4 (P32245 whole entry): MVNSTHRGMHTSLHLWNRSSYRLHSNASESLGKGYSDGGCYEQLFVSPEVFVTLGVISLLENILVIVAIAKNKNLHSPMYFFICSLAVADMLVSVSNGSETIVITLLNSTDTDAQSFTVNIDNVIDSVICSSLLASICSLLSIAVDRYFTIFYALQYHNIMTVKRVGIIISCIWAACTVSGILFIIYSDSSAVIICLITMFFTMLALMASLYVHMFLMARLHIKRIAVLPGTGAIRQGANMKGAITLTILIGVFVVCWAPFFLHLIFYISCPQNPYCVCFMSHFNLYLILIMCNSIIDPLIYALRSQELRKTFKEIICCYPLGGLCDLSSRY
Chain of Phospholipase A2 (P04054 whole entry): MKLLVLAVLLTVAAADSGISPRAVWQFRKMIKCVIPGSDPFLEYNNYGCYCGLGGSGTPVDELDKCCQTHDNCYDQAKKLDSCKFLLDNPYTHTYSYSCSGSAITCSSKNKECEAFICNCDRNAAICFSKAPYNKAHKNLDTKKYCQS
Chain of Beta-galactosidase (Q8VNN2 whole entry): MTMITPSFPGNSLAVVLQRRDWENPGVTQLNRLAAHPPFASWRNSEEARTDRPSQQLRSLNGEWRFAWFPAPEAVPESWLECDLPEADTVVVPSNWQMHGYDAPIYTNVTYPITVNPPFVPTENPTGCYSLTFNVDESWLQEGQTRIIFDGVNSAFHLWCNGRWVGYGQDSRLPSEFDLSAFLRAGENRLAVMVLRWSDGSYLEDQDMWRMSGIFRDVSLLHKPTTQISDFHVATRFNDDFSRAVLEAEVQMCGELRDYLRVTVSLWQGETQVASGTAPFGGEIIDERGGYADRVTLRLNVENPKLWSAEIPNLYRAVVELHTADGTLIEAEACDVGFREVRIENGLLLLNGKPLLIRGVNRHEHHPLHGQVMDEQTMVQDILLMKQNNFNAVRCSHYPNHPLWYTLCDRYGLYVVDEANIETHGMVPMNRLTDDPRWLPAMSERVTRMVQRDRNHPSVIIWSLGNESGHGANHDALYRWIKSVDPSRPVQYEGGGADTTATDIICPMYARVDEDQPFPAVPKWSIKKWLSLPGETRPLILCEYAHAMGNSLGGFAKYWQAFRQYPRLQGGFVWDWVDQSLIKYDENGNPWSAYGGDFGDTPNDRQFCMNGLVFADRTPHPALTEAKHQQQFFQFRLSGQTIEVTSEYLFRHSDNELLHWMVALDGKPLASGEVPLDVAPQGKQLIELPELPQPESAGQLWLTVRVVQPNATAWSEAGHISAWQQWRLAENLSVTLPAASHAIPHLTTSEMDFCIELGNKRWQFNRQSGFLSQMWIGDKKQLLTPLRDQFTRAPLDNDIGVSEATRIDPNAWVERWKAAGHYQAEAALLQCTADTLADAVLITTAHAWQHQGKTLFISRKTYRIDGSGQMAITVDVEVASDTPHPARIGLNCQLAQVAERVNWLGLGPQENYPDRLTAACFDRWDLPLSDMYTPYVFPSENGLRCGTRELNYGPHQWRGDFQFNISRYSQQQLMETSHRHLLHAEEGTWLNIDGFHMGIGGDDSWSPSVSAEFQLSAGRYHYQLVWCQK
Chain of LIM domain kinase 1 (P53667 whole entry, the tested form may be a part): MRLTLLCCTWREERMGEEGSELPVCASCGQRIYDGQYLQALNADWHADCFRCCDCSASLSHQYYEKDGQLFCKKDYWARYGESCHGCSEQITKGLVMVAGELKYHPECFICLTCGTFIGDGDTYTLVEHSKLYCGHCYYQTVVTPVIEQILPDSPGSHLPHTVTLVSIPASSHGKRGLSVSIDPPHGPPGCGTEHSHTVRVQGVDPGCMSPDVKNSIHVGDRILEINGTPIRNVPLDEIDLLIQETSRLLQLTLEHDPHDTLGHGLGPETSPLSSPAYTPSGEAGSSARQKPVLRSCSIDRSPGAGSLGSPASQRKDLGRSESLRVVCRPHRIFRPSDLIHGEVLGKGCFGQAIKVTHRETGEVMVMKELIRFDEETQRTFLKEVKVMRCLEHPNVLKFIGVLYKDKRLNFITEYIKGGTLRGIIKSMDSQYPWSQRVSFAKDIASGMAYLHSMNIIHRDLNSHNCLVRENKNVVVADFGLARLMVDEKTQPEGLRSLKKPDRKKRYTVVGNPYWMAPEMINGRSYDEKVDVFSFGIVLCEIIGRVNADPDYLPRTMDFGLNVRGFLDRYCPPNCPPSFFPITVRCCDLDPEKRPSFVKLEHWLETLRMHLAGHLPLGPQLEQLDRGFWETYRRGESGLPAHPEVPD
Chain of Dual specificity protein kinase CLK4 (Q9HAZ1 whole entry): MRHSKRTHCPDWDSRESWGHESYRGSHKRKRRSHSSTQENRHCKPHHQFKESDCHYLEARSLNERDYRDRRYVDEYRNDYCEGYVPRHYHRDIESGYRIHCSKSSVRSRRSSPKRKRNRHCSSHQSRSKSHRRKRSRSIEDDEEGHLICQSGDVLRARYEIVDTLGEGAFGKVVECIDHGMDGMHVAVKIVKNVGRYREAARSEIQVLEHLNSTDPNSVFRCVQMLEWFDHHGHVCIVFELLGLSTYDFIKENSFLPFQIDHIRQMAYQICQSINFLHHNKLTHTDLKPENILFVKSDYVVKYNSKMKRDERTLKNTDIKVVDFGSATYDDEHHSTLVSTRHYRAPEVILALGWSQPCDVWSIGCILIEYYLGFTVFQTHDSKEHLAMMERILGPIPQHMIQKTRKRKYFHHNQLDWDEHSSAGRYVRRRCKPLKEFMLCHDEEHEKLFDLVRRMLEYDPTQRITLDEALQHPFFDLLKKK
Chain of Proto-oncogene tyrosine-protein kinase ROS (P08922 whole entry): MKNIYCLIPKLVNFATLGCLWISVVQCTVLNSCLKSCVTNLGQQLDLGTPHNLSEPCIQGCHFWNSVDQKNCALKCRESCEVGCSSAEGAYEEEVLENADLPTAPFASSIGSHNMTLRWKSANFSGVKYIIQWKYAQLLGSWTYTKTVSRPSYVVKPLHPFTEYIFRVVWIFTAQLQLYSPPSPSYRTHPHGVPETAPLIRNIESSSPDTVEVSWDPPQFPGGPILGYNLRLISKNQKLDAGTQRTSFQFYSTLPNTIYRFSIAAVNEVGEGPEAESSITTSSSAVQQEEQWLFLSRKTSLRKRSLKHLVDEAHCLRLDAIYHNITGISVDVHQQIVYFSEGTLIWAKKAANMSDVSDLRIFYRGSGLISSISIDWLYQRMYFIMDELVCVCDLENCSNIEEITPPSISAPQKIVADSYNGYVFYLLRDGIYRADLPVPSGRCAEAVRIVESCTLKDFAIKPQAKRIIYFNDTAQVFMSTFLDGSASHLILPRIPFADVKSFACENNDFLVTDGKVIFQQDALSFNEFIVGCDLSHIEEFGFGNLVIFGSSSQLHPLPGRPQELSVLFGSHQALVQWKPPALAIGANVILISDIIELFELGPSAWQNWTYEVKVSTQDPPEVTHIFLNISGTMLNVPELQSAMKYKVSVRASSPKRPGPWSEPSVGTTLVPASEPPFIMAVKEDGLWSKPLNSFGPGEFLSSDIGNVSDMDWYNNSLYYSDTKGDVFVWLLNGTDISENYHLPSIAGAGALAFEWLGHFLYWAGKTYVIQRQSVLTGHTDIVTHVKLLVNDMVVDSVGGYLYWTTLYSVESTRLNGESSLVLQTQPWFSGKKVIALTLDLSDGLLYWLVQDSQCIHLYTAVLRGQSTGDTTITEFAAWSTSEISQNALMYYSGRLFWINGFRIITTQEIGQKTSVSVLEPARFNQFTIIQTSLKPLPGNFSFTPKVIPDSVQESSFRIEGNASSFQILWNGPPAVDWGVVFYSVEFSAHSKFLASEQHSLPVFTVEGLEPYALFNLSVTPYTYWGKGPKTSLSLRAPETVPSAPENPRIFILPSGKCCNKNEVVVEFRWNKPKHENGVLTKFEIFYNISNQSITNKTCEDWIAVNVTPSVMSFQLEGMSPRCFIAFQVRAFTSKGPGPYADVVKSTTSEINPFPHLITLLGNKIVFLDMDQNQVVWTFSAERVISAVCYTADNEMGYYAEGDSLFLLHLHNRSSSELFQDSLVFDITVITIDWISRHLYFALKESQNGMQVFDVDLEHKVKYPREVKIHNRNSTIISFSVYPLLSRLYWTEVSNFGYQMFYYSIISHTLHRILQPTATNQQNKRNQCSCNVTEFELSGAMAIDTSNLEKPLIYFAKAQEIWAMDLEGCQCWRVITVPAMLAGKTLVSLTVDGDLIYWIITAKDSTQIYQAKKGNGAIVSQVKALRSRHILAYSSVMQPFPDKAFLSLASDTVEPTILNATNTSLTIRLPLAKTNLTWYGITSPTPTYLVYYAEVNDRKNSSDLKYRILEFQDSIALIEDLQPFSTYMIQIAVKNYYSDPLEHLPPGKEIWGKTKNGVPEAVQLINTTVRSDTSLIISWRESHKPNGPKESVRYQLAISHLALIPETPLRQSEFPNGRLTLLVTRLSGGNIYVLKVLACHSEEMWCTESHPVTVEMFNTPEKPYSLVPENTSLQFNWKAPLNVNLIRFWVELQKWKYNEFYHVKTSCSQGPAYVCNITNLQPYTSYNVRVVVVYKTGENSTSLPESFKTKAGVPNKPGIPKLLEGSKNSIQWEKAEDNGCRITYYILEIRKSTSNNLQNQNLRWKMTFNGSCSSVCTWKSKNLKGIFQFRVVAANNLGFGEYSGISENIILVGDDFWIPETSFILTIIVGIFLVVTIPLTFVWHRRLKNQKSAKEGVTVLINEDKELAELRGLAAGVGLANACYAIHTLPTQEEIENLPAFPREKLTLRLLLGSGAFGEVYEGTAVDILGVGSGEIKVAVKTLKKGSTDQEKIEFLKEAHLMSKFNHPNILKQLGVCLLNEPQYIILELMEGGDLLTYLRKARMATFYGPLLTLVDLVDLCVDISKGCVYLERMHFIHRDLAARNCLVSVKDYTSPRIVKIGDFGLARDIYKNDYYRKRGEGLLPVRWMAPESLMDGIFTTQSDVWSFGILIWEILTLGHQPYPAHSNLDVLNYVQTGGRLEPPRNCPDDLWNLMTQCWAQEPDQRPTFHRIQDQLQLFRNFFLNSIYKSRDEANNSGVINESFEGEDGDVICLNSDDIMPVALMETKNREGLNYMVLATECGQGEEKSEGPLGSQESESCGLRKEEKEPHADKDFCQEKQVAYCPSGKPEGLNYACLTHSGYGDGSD

## O=C1/C(=C/c2ccc([N+](=O)[O-])cc2)C=C(c2ccccc2)N1c1ccc(O)cc1
[1]
  IC50: > 66.6 µM (inactive)
[2]
  IC50: > 64.6 µM (inactive)
Beta-galactosidase
  IC50: > 66.6 µM (inactive)
Melanocortin receptor 4
  IC50: > 64.6 µM (inactive)

## Cc1nnc(SCc2cnc(-c3ccc(C(C)C)cc3)s2)n1C
HEK293
  AC50: 4.43 µM (active)
[3]
  IC50: 10 µM (active)
[4]
  EC50: > 50 µM (active)
[5]
  IC50: 1.28 µM (active)

## Cc1ccccc1-c1cccc2nccn12
[6]
  Ki: 15.8 µM (active)
[7]
  Ki: 63.1 µM (active)
[8]
  Ki: 12.6 µM (active)
[9]
  Ki: 79.4 µM (active)
[10]
  Ki: 39.8 µM (active)
LIM domain kinase 1
  Ki: 79.4 µM (active)

## Cc1ccc2nc3c(c(Nc4ccc5c(c4)OCCO5)c2c1)CCC3
[11]
  AC50: 54.9 µM (active)
Phospholipase A2
  IC50: 7.53 µM (active)
Cysteine protease ATG4B
  IC50: 10.7 µM (active)

## COC1=C(Br)C(=O)c2ncccc2C1=O
[1]
  IC50: > 66.6 µM (inactive)
Phospholipase A2
  IC50: > 80 µM (inactive)
Cysteine protease ATG4B
  IC50: 3.53 µM (active)
Beta-galactosidase
  IC50: > 66.6 µM (inactive)
Genome polyprotein
  IC50: 3.41 µM (active)
Hexokinase HKDC1
  IC50: 3.56 µM (active)

## O=C(Cc1cccc2cnccc12)NCc1ccc(Br)cc1
[12]
  Ki: 6.31 µM (active)
[13]
  Ki: 1.58 µM (active)

## O=C(O)CC1=C(Nc2ccccc2)C(=O)N(c2ccccc2)C1c1ccc(Br)cc1 (stereo unspecified)
[3]
  IC50: 3.98 µM (active)
[5]
  IC50: 5.55 µM (active)

## CN(CCc1ccccc1)C(=O)c1ccc(NC(=O)Cc2ccc(NC(=O)C3CCN(C(=O)C4CCCC4)CC3)cc2)cc1
[14]
  IC50: 1.38 µM (active)

## CC(C)[C@H](CN1CCC[C@H]1CN1C(N)=NC[C@@H]1Cc1ccccc1)N1C[C@@H](Cc2ccccc2)N(CCc2ccc(Cl)c(Cl)c2)C1=N
[2]
  IC50: > 64.6 µM (inactive)
[15]
  IC50: > 20 µM (inactive)
Melanocortin receptor 4
  IC50: 7.16 µM (active)
